This passage reports TGI and GI50 results from PubChem BioAssay (NCI).

Structures are written as SMILES.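 The compound was tested at five concentrations on cells cultured in 96-well plates, with a 48-hour exposure period. GI50 = concentration required for 50% inhibition of growth. The concentration for full growth arrest is given as TGI.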

Test systems include HCT-15 colon; CAKI-1 renal; KM12 colon; HOP-62 NSCLC; NCI-H522 lung; M14 melanoma; RXF 393 renal; SF-539 CNS; OVCAR-8 ovarian; MALME-3M melanoma; SN12C renal; NCI-H460 lung; SR leukemia; HOP-92 NSCLC; CCRF-CEM leukemia; SK-OV-3 ovarian; MCF7 breast.
What all share (assay): growth of human tumour cells (NCI), 48 h

On to `CCOC(=O)[C@H]1Nc2c(cccc2[N+](=O)[O-])C2c3ccccc3CC21` (stereo not given in full), for which the TGI in the experiment on HCT-15 colon, in the experiment on CAKI-1 renal, in the experiment with KM12 colon, in the experiment on HOP-62 NSCLC, in the experiment on NCI-H522 lung and in the experiment with M14 melanoma was above 100 µM throughout. Also, the TGI with RXF 393 renal was 45.8 µM; in the experiment on SF-539 CNS it was above 100 µM; in the experiment with OVCAR-8 ovarian, above 100 µM; with MALME-3M melanoma, above 100 µM; with SN12C renal, above 100 µM; with NCI-H460 lung, above 100 µM. Moreover, the TGI in the experiment on SR leukemia was above 100 µM.

As for `Fc1ccc(C(OCCN2CC3CC2CN3)c2ccc(F)cc2)cc1` (stereo not given), the TGI with HOP-92 NSCLC, with HCT-15 colon, with CCRF-CEM leukemia, with CAKI-1 renal, in the experiment with KM12 colon and with HOP-62 NSCLC was above 100 µM in each case. Besides, the TGI in the experiment on NCI-H522 lung was above 100 µM; in the experiment on RXF 393 renal, above 100 µM; with SF-539 CNS it was above 100 µM; in the experiment with SK-OV-3 ovarian, above 100 µM; in the experiment on OVCAR-8 ovarian, above 100 µM; in the experiment on MALME-3M melanoma, 32.3 µM. Also, the TGI with MCF7 breast was above 100 µM; with NCI-H460 lung, above 100 µM; in the experiment with SR leukemia, 73 µM.

With `Clc1ccc(-c2nnc(-c3nsc4ccccc34)o2)cc1`, the TGI in the experiment with HOP-92 NSCLC is 46.2 µM; with HCT-15 colon, above 100 µM; with KM12 colon, above 100 µM; in the experiment on HOP-62 NSCLC, 33.6 µM; in the experiment with M14 melanoma it was above 100 µM; with RXF 393 renal it was 99.4 µM. The TGI in the experiment with SF-539 CNS was 48.9 µM; in the experiment on OVCAR-8 ovarian, above 100 µM; in the experiment with SN12C renal, above 100 µM; with NCI-H460 lung, above 100 µM.

For the compound `c1csc(C(NC2=NCCO2)C2CC2)c1` (stereo not given), the TGI in the experiment on HOP-92 NSCLC, in the experiment with HCT-15 colon, in the experiment with CAKI-1 renal, with HOP-62 NSCLC, in the experiment on NCI-H522 lung and in the experiment on RXF 393 renal was above 100 µM in each case. Moreover, the TGI in the experiment with SF-539 CNS, in the experiment with SK-OV-3 ovarian, in the experiment on OVCAR-8 ovarian, with SN12C renal, with MCF7 breast and in the experiment on NCI-H460 lung was above 100 µM throughout. Moreover, the TGI in the experiment with SR leukemia was above 100 µM.

With `CO/C(=N\N=C(/c1ccccc1)C(F)(F)F)c1ccncc1`, the TGI was above 100 µM with HOP-92 NSCLC; above 100 µM in the experiment on HCT-15 colon; 77 µM with CCRF-CEM leukemia; above 100 µM with CAKI-1 renal; above 100 µM in the experiment on KM12 colon; above 100 µM in the experiment on HOP-62 NSCLC. In addition, the TGI in the experiment on NCI-H522 lung, with M14 melanoma, in the experiment on RXF 393 renal, with SK-OV-3 ovarian, in the experiment with OVCAR-8 ovarian and in the experiment on MALME-3M melanoma was above 100 µM in each case. The TGI with SN12C renal, in the experiment on MCF7 breast, in the experiment on NCI-H460 lung and in the experiment on SR leukemia was above 100 µM in each case.

For the compound `N/C(=N\N=C/c1cc([N+](=O)[O-])cc([N+](=O)[O-])c1O)NO`, the TGI with HOP-92 NSCLC is above 100 µM; in the experiment on HCT-15 colon, above 100 µM; in the experiment with CCRF-CEM leukemia it was above 100 µM; in the experiment on CAKI-1 renal, above 100 µM; with KM12 colon, above 100 µM; with HOP-62 NSCLC, above 39.1 µM. Besides, the TGI with NCI-H522 lung, in the experiment on RXF 393 renal, in the experiment with SF-539 CNS, in the experiment with SK-OV-3 ovarian, in the experiment on OVCAR-8 ovarian and with MALME-3M melanoma was above 100 µM in each case. The TGI in the experiment on SN12C renal, with MCF7 breast and in the experiment on NCI-H460 lung was above 100 µM each time.

On to `CCN1C(=O)N2C(OC)c3ccccc3C(Br)C2(OC)C1=O` (stereo not given), for which the TGI in the experiment on HCT-15 colon, in the experiment with CCRF-CEM leukemia, in the experiment on CAKI-1 renal, in the experiment with KM12 colon, in the experiment with HOP-62 NSCLC and in the experiment with NCI-H522 lung was above 100 µM throughout. The TGI with M14 melanoma, with SK-OV-3 ovarian, with OVCAR-8 ovarian, with MALME-3M melanoma, with SN12C renal and with NCI-H460 lung was above 100 µM in each case. In the experiment with SR leukemia, this compound had a TGI above 100 µM.

As to `Cc1cc(C)c(S(=O)(=O)N(CCCN)OCCCN)c(C)c1`, the TGI in the experiment with HOP-92 NSCLC, in the experiment with CCRF-CEM leukemia, with CAKI-1 renal, with KM12 colon, in the experiment with HOP-62 NSCLC and in the experiment with M14 melanoma was above 100 µM throughout. Further, the TGI in the experiment on RXF 393 renal, in the experiment on SF-539 CNS, with SK-OV-3 ovarian, in the experiment with OVCAR-8 ovarian, in the experiment with MALME-3M melanoma and in the experiment with SN12C renal was above 100 µM throughout. The TGI in the experiment on MCF7 breast, with NCI-H460 lung and with SR leukemia was above 100 µM in each case.

For `Clc1cccc(C2SCc3nc4ccccc4n32)c1` (stereo not given), the TGI is 30.4 µM in the experiment on HOP-92 NSCLC; 44 µM in the experiment with HCT-15 colon; above 100 µM in the experiment on CCRF-CEM leukemia; above 100 µM with CAKI-1 renal; 50.5 µM in the experiment with KM12 colon; 55.9 µM with HOP-62 NSCLC. For the same compound, the TGI in the experiment with NCI-H522 lung stood at 29.5 µM; in the experiment with M14 melanoma, 50.5 µM; in the experiment on RXF 393 renal, 41.7 µM; in the experiment with SF-539 CNS, 48.2 µM; in the experiment on SK-OV-3 ovarian, 52.7 µM; with OVCAR-8 ovarian, 65.1 µM. Moreover, the TGI in the experiment with MALME-3M melanoma was 62.1 µM; in the experiment with SN12C renal, 28.6 µM; in the experiment with NCI-H460 lung, above 100 µM; with SR leukemia, 56.3 µM.

Turning to `O=c1[nH]c(=S)[nH]c2c(C3OC(CO)C(O)C3O)nsc12` (stereo not given), the TGI with HOP-92 NSCLC, in the experiment on HCT-15 colon, with CCRF-CEM leukemia, in the experiment with CAKI-1 renal, with HOP-62 NSCLC and in the experiment with M14 melanoma was above 100 µM each time. For the same compound, the TGI in the experiment on RXF 393 renal, with SF-539 CNS, in the experiment on SK-OV-3 ovarian, in the experiment with OVCAR-8 ovarian, with MALME-3M melanoma and in the experiment with SN12C renal was above 100 µM throughout. The TGI with MCF7 breast and in the experiment on NCI-H460 lung was above 100 µM in each case.

Consider `CC1=NN(C(=O)c2ccc(C)cc2)C(=O)C1N=Nc1ccccc1C(=O)O` (stereo not given), for which the TGI in the experiment with HOP-92 NSCLC, with HCT-15 colon, in the experiment with CCRF-CEM leukemia, with CAKI-1 renal, in the experiment on KM12 colon and in the experiment with HOP-62 NSCLC was above 100 µM in each case. In addition, the TGI in the experiment on NCI-H522 lung, with RXF 393 renal, in the experiment on SF-539 CNS, in the experiment on SK-OV-3 ovarian, with OVCAR-8 ovarian and in the experiment on MALME-3M melanoma was above 100 µM throughout. For the same compound, the TGI in the experiment with SN12C renal, in the experiment with MCF7 breast and with NCI-H460 lung was above 100 µM throughout.

Turning to `CC(=O)Nc1cc(/C=C\C(=O)N2CC(CCl)c3c2cc(N)c2ccccc32)n(C)n1` (stereo not given), the TGI in the experiment with HOP-92 NSCLC was above 100 µM; with HCT-15 colon, above 100 µM; in the experiment with CCRF-CEM leukemia, 0.012 µM; with CAKI-1 renal, 0.0223 µM; in the experiment with RXF 393 renal, above 100 µM; in the experiment on SF-539 CNS it was 0.0214 µM. For the same compound, the TGI in the experiment with MCF7 breast is above 100 µM. In addition, the GI50 with HCT-15 colon was 0.0167 µM; in the experiment with M14 melanoma, 0.0138 µM; in the experiment on SK-OV-3 ovarian, 0.0311 µM.
